In patent US8470820B2, “Nitrogen-containing heteroaryl derivatives” (Hoffman-La Roche Inc., priority 2010, dated 2013):

Columns and labels:
human PDE10A = human PDE10A (Homo sapiens (Human), UniProt Q9Y233); assay: human PDE10A full length Scintillation Proximity Assay (SPA); type: biochemical; conditions: 50 nM cGMP and 50 nM [3H]-cGMP, 20 minutes at room temperature, read-out: PDE10A inhibition IC50
rats = conditions: sub-chronic treatment with PCP (NMDA receptor hypofunction paradigm); cited from earlier work

Chain of human PDE10A (Q9Y233 other isoform, or with tags, fused parts or gaps): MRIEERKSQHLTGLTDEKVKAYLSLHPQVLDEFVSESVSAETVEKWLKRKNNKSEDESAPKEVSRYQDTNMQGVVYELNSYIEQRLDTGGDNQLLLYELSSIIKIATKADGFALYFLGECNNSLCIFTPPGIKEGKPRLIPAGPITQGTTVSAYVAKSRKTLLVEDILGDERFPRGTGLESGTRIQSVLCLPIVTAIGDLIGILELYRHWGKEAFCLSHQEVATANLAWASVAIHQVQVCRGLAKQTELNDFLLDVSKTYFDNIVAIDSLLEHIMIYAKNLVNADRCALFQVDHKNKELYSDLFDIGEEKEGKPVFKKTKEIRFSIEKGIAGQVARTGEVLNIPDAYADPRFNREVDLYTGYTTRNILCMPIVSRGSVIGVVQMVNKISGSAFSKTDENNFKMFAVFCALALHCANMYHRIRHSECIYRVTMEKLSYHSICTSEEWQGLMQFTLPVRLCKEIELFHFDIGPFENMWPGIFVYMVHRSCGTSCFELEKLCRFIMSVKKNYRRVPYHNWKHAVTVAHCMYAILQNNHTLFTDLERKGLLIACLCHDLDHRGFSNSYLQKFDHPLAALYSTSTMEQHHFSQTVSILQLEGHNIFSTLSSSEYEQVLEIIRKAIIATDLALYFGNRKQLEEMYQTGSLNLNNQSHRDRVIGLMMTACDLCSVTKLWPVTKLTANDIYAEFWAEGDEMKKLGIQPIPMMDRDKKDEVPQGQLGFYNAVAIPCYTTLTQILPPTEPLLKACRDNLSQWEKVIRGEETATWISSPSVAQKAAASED

| Structure (SMILES) | IC50 (human PDE10A) | effect on deficits in extra-dimensional shift learning (rats) |
| --- | --- | --- |
| O=C(Nc1cc(-c2ccc(Cl)cc2)no1)c1nc(C2CC2)ccc1Nc1cncnc1 [Example 56, 6-Cyclopropyl-3-(pyrimidin-5-ylamino)-pyridine-2-carboxylic acid [3-(4-chloro-phenyl)-isoxazol-5-yl]-amide] | 1450 nM | – |
| O=C(Nc1cc(-c2ccc(Br)cc2)no1)c1nc(C2CC2)ccc1Nc1cncnc1 [Example 57, 6-Cyclopropyl-3-(pyrimidin-5-ylamino)-pyridine-2-carboxylic acid [3-(4-bromo-phenyl)-isoxazol-5-yl]-amide] | 781 nM | – |
| O=C(Nc1cc(-c2ccc(F)cc2)no1)c1nc(C2CC2)ccc1Nc1cncnc1 [Example 58, 6-Cyclopropyl-3-(pyrimidin-5-ylamino)-pyridine-2-carboxylic acid [3-(4-fluoro-phenyl)-isoxazol-5-yl]-amide] | 2450 nM | – |
| O=C(Nc1cn(-c2ccccn2)cn1)c1nc(C2CC2)cnc1Nc1cncnc1 [Example 66, 6-Cyclopropyl-3-(pyrimidin-5-ylamino)-pyrazine-2-carboxylic acid (1-pyridin-2-yl-1H-imidazol-4-yl)-amide] | 187 nM | – |
| COc1ccc(Cc2nccc3cc(OC)c(OC)cc23)cc1OC [papaverine, Papaverine] | – | attenuate the deficits in the extra-dimensional shift learning |

Second part, led by results:

| IC50 (human PDE10A) | Structure (SMILES) | effect on deficits in extra-dimensional shift learning (rats) |
| --- | --- | --- |
| 4 nM | Cn1nc(-c2ccccn2)cc1NC(=O)c1nc(C(C)(C)C)ncc1Nc1cncnc1 [Example 55, 2-tert-Butyl-5-(pyrimidin-5-ylamino)-pyrimidine-4-carboxylic acid (2-methyl-5-pyridin-2-yl-2H-pyrazol-3-yl)-amide] | – |
| 7 nM | COCc1ccc(Nc2cncnc2)c(C(=O)Nc2cc(-c3ccccn3)nn2C)n1 [Example 59, 6-Methoxymethyl-3-(pyrimidin-5-ylamino)-pyridine-2-carboxylic acid (2-methyl-5-pyridin-2-yl-2H-pyrazol-3-yl)-amide] | – |
| 6 nM | Cn1nc(-c2ccccn2)cc1NC(=O)c1nc(C2CCCCC2)ncc1Nc1cncnc1 [Example 60, 2-Cyclohexyl-5-(pyrimidin-5-ylamino)-pyrimidine-4-carboxylic acid (2-methyl-5-pyridin-2-yl-2H-pyrazol-3-yl)-amide] | – |
| 28 nM | CC(C)Cc1ncc(Nc2cncnc2)c(C(=O)Nc2cc(-c3ccccn3)nn2C)n1 [Example 61, 2-Isobutyl-5-(pyrimidin-5-ylamino)-pyrimidine-4-carboxylic acid (2-methyl-5-pyridin-2-yl-2H-pyrazol-3-yl)-amide] | – |
| 2 nM | O=C(Nc1cnc(-c2ccccn2)s1)c1nc(C2CC2)ccc1Nc1cncnc1 [Example 62, 6-Cyclopropyl-3-(pyrimidin-5-ylamino)-pyridine-2-carboxylic acid (2-pyridin-2-yl-thiazol-5-yl)-amide] | – |
| 327 nM | Cn1nc(NC(=O)c2nc(C3CC3)ccc2Nc2cncnc2)cc1-c1ccccn1 [Example 63, 6-Cyclopropyl-3-(pyrimidin-5-ylamino)-pyridine-2-carboxylic acid (1-methyl-5-pyridin-2-yl-1H-pyrazol-3-yl)-amide] | – |
| 2040 nM | O=C(Nc1nnc(-c2ccccn2)o1)c1nc(C2CC2)ccc1Nc1cncnc1 [Example 64, 6-Cyclopropyl-3-(pyrimidin-5-ylamino)-pyridine-2-carboxylic acid (5-pyridin-2-yl-[1,3,4]oxadiazol-2-yl)-amide] | – |
| 55 nM | O=C(Nc1cnn(-c2ccccn2)c1)c1nc(C2CC2)ccc1Nc1cncnc1 [Example 65, 6-Cyclopropyl-3-(pyrimidin-5-ylamino)-pyridine-2-carboxylic acid (1-pyridin-2-yl-1H-pyrazol-4-yl)-amide] | – |
